Experiments:
[1] = tested on: Escherichia coli; assay: Microbicidal activity according to EN1040; format: cell-based; settings: 1000 ppm, room temperature, vs growth control in water
Protocol: (§1) A bacterial suspension with a cell count of about 10^7 cfu/ml is contacted with appropriate concentrations of the specific substances and the residual cell count determined after incubation times of 5 and 30 minutes at room temperature under continuous stirring. Staphylococcus aureus was tested as gram+ and Escherichia coli as gram− organism. The results are given as a log reduction in comparison to a growth control in water.

[2] = tested on: Staphylococcus aureus; assay: Microbicidal activity according to EN1040; format: cell-based; settings: 1000 ppm, room temperature, vs growth control in water
Protocol: as §1

[3] = tested on: A. niger ATCC 16404; assay: Microbicidal activity under conditions similar to a preservative challenge test; format: cell-based; settings: 0.5%, inoculum 10^5 cfu/ml
Protocol: as §1
(§2) The test procedure of Example 7 is used, with an inoculum concentration of 10^5 cfu/ml and incubation times of 48 and 72 hours; figures given as log reduction.

[4] = tested on: C. albicans ATCC 10231; assay: as above; format: cell-based; settings: 0.5%, inoculum 10^5 cfu/ml
Protocol: as §1, §2

[5] = tested on: E. coli ATCC 10536; assay: as above; format: cell-based; settings: 0.5%, inoculum 10^5 cfu/ml
Protocol: as §1, §2

[6] = tested on: P. aeruginosa ATCC 15442; assay: as above; format: cell-based; settings: 0.5%, inoculum 10^5 cfu/ml
Protocol: as §1, §2

[7] = tested on: S. aureus ATCC 6538; assay: as above; format: cell-based; settings: 0.5%, inoculum 10^5 cfu/ml
Protocol: as §1, §2

[8] = tested on: Aspergillus niger; assay: Fungicidal activity according to EN12175; format: cell-based; settings: spores about 10^6 cfu/ml, vs water control; for log reduction A. niger 30 min: 1%
Protocol: (§3) Fungicidal activity is tested according to EN12175. A fungal spore suspension with a spore cell count of about 10^6 cfu/ml is contacted with appropriate concentrations of the specific substances and the residual spore cell count determined after incubation times of 30 and 60 minutes at room temperature under continuous stirring. Penicillium funiculosum, Aspergillus niger and Aureobasidium pullulans are tested as important mold strains. The results are given as a log reduction at each incubation time in comparison to a water control.

[9] = tested on: Aureobasidium pullulans; assay: Fungicidal activity according to EN12175; format: cell-based; settings: spores about 10^6 cfu/ml, vs water control; for log reduction A. pullulans 30 min: 1%
Protocol: as §3

[10] = tested on: Penicillium funiculosum; assay: Fungicidal activity according to EN12175; format: cell-based; settings: spores about 10^6 cfu/ml, vs water control; for log reduction P. funiculosum 30 min: 1%
Protocol: as §3

[11] = tested on: A. niger; assay: Preservative challenge test in cosmetic emulsions (EurPh and USP); format: cell-based; settings: 0.5% w/w
Protocol: (§4) A preservative challenge test is conducted for representative cosmetic formulations according to the conditions of the EurPh and USP. The compound concentration in the formulations is 0.5% w/w. The Inoculum concentration of the five different strains is 2.1-4.2×10^5 cfu/ml, incubation time according to EurPh. 2, 7, 14 and 28 days. Preservation is investigated in two different emulsion types, w/o and o/w.

[12] = tested on: C. albicans; assay: as above; format: cell-based; settings: 0.5% w/w
Protocol: as §4

[13] = tested on: E. coli; assay: as above; format: cell-based; settings: 0.5% w/w
Protocol: as §4

[14] = tested on: P. aerug.; assay: as above; format: cell-based; settings: 0.5% w/w
Protocol: as §4

[15] = tested on: S. aureus; assay: as above; format: cell-based; settings: 0.5% w/w
Protocol: as §4

[16] = Formulation of stable w/o or o/w emulsions; format: physicochemical; settings: comparable concentrations (0.5% w/w) in the w/o and o/w emulsions of Example 10

In the case of CCCCOC(=O)C[n+]1ccn(C)c1.[Br-] [Ex 3], the “log reduction E. coli 5 min.” value [1] is reported as under 1 log, the “log reduction E. coli 30 min.” value [1] is reported as under 1 log and the “log reduction S. aureus 5 min.” value [2] is reported as under 1 log. For the same molecule, the “log reduction S. aureus 30 min.” value [2] was under 1 log, the “log reduction A. niger ATCC 16404 48 h” value [3] was under 1 log and the “log reduction A. niger ATCC 16404 72 h” value [3] was under 1 log. The “log reduction C. albicans ATCC 10231 48 h” value [4] was 1.4 log, the “log reduction C. albicans ATCC 10231 72 h” value [4] was 1.7 log and the “log reduction E. coli ATCC 10536 48 h” value [5] was over 3 log. For the same molecule, the “log reduction E. coli ATCC 10536 72 h” value [5] was over 3 log, the “log reduction P. aeruginosa ATCC 15442 48 h” value [6] was over 3 log and the “log reduction P. aeruginosa ATCC 15442 72 h” value [6] was over 3 log. The “log reduction S. aureus ATCC 6538 48 h” value [7] was over 3 log, the “log reduction S. aureus ATCC 6538 72 h” value [7] was over 3 log and the “log reduction A. niger 30 min” value [8] was under 1 log. The “log reduction A. niger 1 h” value [8] was under 1 log, the “log reduction A. pullulans 30 min” value [9] was under 1 log and the “log reduction A. pullulans 1 h” value [9] was under 1 log. For the same molecule, the “log reduction P. funiculosum 30 min” value [10] was under 1 log and the “log reduction P. funiculosum 1 h” value [10] was under 1 log.
In the case of CCCCCCCCCCCCOC(=O)C[n+]1ccn(C)c1.[Br-] [Ex 4], the “log reduction E. coli 5 min.” value [1] is reported as over 5 log, the “log reduction E. coli 30 min.” value [1] is reported as over 5 log and the “log reduction S. aureus 5 min.” value [2] is reported as over 5 log. The “log reduction S. aureus 30 min.” value [2] was over 5 log, the “log reduction A. niger ATCC 16404 48 h” value [3] was 1.8 log and the “log reduction A. niger ATCC 16404 72 h” value [3] was 2.3 log. For the same molecule, the “log reduction C. albicans ATCC 10231 48 h” value [4] was over 3 log, the “log reduction C. albicans ATCC 10231 72 h” value [4] was over 3 log and the “log reduction E. coli ATCC 10536 48 h” value [5] was over 3 log. For the same molecule, the “log reduction E. coli ATCC 10536 72 h” value [5] was over 3 log, the “log reduction P. aeruginosa ATCC 15442 48 h” value [6] was over 3 log and the “log reduction P. aeruginosa ATCC 15442 72 h” value [6] was over 3 log. The “log reduction S. aureus ATCC 6538 48 h” value [7] was over 3 log, the “log reduction S. aureus ATCC 6538 72 h” value [7] was over 3 log and the “log reduction A. niger 30 min” value [8] was 2.1 log. The “log reduction A. niger 1 h” value [8] was over 4 log, the “log reduction A. pullulans 30 min” value [9] was over 4 log and the “log reduction A. pullulans 1 h” value [9] was over 4 log. The “log reduction P. funiculosum 30 min” value [10] was under 1 log, the “log reduction P. funiculosum 1 h” value [10] was 1.9 log and the “Log Reduction A. niger” value ([11]; O/W emulsion, 2 days) was 0 log. The “Log Reduction A. niger” value ([11]; O/W emulsion, 7 days) was 0 log, the “Log Reduction A. niger” value ([11]; O/W emulsion, 14 days) was 0 log and the “Log Reduction A. niger” value ([11]; O/W emulsion, 28 days) was 0 log. For the same molecule, the “Log Reduction A. niger” value ([11]; W/O emulsion, 2 days) was 0 log, the “Log Reduction A. niger” value ([11]; W/O emulsion, 7 days) was 1 log and the “Log Reduction A. niger” value ([11]; W/O emulsion, 14 days) was 2 log. The “Log Reduction A. niger” value ([11]; W/O emulsion, 28 days) was 2 log, the “Log Reduction C. albicans” value ([12]; O/W emulsion, 2 days) was 0 log and the “Log Reduction C. albicans” value ([12]; O/W emulsion, 7 days) was 0 log. The “Log Reduction C. albicans” value ([12]; O/W emulsion, 14 days) was 0 log, the “Log Reduction C. albicans” value ([12]; O/W emulsion, 28 days) was 0 log and the “Log Reduction C. albicans” value ([12]; W/O emulsion, 2 days) was 2 log. For the same molecule, the “Log Reduction C. albicans” value ([12]; W/O emulsion, 7 days) was 3 log, the “Log Reduction C. albicans” value ([12]; W/O emulsion, 14 days) was 3 log and the “Log Reduction C. albicans” value ([12]; W/O emulsion, 28 days) was 5 log. The “Log Reduction E. coli” value ([13]; O/W emulsion, 2 days) was 1 log, the “Log Reduction E. coli” value ([13]; O/W emulsion, 7 days) was 1 log and the “Log Reduction E. coli” value ([13]; O/W emulsion, 14 days) was 2 log. For the same molecule, the “Log Reduction E. coli” value ([13]; O/W emulsion, 28 days) was “≧4 log”, the “Log Reduction E. coli” value ([13]; W/O emulsion, 2 days) was 6 log and the “Log Reduction E. coli” value ([13]; W/O emulsion, 7 days) was 6 log. For the same molecule, the “Log Reduction E. coli” value ([13]; W/O emulsion, 14 days) was 6 log, the “Log Reduction E. coli” value ([13]; W/O emulsion, 28 days) was 6 log and the “Log Reduction P. aerug.” value ([14]; O/W emulsion, 2 days) was “≧4 log”. The “Log Reduction P. aerug.” value ([14]; O/W emulsion, 7 days) was 5 log, the “Log Reduction P. aerug.” value ([14]; O/W emulsion, 14 days) was 5 log and the “Log Reduction P. aerug.” value ([14]; O/W emulsion, 28 days) was 5 log. The “Log Reduction P. aerug.” value ([14]; W/O emulsion, 2 days) was 5 log, the “Log Reduction P. aerug.” value ([14]; W/O emulsion, 7 days) was 5 log and the “Log Reduction P. aerug.” value ([14]; W/O emulsion, 14 days) was 5 log. For the same molecule, the “Log Reduction P. aerug.” value ([14]; W/O emulsion, 28 days) was 5 log, the “Log Reduction S. aureus” value ([15]; O/W emulsion, 2 days) was 4 log and the “Log Reduction S. aureus” value ([15]; O/W emulsion, 7 days) was 6 log. For the same molecule, the “Log Reduction S. aureus” value ([15]; O/W emulsion, 14 days) was 6 log, the “Log Reduction S. aureus” value ([15]; O/W emulsion, 28 days) was 6 log and the “Log Reduction S. aureus” value ([15]; W/O emulsion, 2 days) was 6 log. The “Log Reduction S. aureus” value ([15]; W/O emulsion, 7 days) was 6 log, the “Log Reduction S. aureus” value ([15]; W/O emulsion, 14 days) was 6 log and the “Log Reduction S. aureus” value ([15]; W/O emulsion, 28 days) was 6 log.
For benzalkonium chloride, the “stability of w/o or o/w emulsions formulated with the agent” value [16] was “No stable w/o or o/w emulsions could be formulated”.

From patent publication US8232305B2, “Anti-microbial compositions” (BASF SE, priority 2006, dated 2012)
